For one molecule, Activity results are on record in ChEMBL document CHEMBL4196204, “Sulfonic Acid-Containing Flavonoids from the Roots of Phyllanthus acidus” (J Nat Prod, 2018).

Structures are written as SMILES. Activity calls are given as the source filed them. The rule behind the calls is not given here.

One experiment concerns MCF7. The experiment in a line: Antiproliferative activity against human MCF7 cells by MTT assay. The class given is functional, cell-based. A general note: Formazan colour is commonly taken as a measure of viable cells.
The test system of the next experiment is HepG2. As to the kind of experiment: Antiproliferative activity against human HepG2 cells by MTT assay. The class given is functional, cell-based.

For the molecule `COc1c(O)c2c(c(S(=O)(=O)O)c1O)OC(c1ccc(O)cc1)CC2=O` (racemic), the result in the experiment on MCF7 and in the experiment with HepG2 was inactive.
